# Data from US20020028851A1, “Guanylhydrazones and their use to treat inflammatory conditions” (priority 1994, published 2002).
# Where “and” joins values, the source holds several entries; their conditions need not be identical. Equal entries are not always repeated.
# Assays:
# [1] = system: CHO-TNF tumor; experiment: CHO-TNF tumor growth in nude mice; type: in vivo; details: 0.4 mg/Kg i.p. once daily, two weeks
# Procedure: This section describes in detail the methods and results of an animal model of tumor growth to determine the ability of the compounds of the invention to inhibit tumor growth, and cause regression of tumors. Cells are plated in standard tissue culture flasks in DMEM supplemented with fetal calf serum (10%). Chinese hamster ovary (CHO) cells stably transfected with a mammalian expression vector constitutively secrete human TNF (CHO-TNF). The experiments with the CHO-TNF tumor were performed as follows: on the day of injection into nude mice, cells are harvested and injected intramuscularly (10-15×10^6 cells per animal) into the hindlimb of nu/nu nude mice (20 g body weight). Animals are housed and provided food and water ad libitum. Tumor growth is monitored, and when established tumors are present (during week six) the test compounds are administered daily (0.4 mg/Kg intraperitoneal, once daily). After two weeks the animals are euthanized, the tumor weighed, and measured with a caliper. The CHO-TNF tumor also metastasizes to the skin of these animals; the number of metastases is scored.
# [2] = Pharmacokinetics by HPLC of serum; type: in vivo, rats
# Procedure: Male Sprague-Dawley rats (Harlan Sprague Dawley, Indianapolis, Ind., USA) were anesthetized with ketamine and the right carotid artery cannulated with polyethylene tubing (PE-50). […] At 0, 5, 15, 30, 60, 90, 120, 180, 240, 300, 360 minutes 400 μl of blood was removed, stored at 4° C. for 4 hr, and then centrifuged at 15,000 ×g for 10 min, and the serum layer collected. Sodium azide was added to 0.0l v/v to prevent microbial growth and pentamidine was added to 5 μg/ml. Twenty-five μl of the resulting sample was analyzed by the HPLC method described.
# The HPLC method was applied towards estimating the pharmacokinetic parameters of Compound No. 14 in adult rats receiving a 10 mg/kg dose as a single intra-arterial injection. In these experiments, the solid-phase extraction step was omitted due to the small volume of each sample, and the relatively large amount of Compound No. 14 which was recovered. Typical serum decay curves were obtained (FIG. 17, solid line), and the method of residuals, Gibaldi, M., & Perrier, D., 1982, PHARMACOKINETICS (Marcel Dekker, New York) pp. 433-444, was used to calculate the pharmacokinetic parameters (FIG. 17, dashed lines).
# [3] = system: RAW 264.7 cells; experiment: Whole cell inhibition assay for arginine uptake; type: cell-based, murine; details: for arginine transport % suppression of induced peak: γIFN+LPS, 8 hours
# Procedure: In the embodiment described in the working example herein, a test population of cells was cultured for about 3 hours so that the cells became firmly adherent. Various concentrations of the potential inhibitors were then added to parallel cultures. One hour later the macrophage stimulators, e.g. including, but not limited to LPS and γIFN, were added. Eighteen hours later the cells were washed in a warm balanced salt solution supplemented with glucose. Carrier-free radiolabelled arginine was added; after 5 minutes, active uptake of arginine was stopped by washing the cell three times with buffer, chilled to 0° C., containing 10 mM unlabeled arginine to displace any externally bound label. The contents of the washed cells are solubilized in 100 μl of formic acid and counted by standard techniques.
# RAW 264.7 cells are plated in standard 96-well microculture plates at a concentration of 10^5/well and allowed to adhere for from 2 hours to overnight. The medium is then replaced with medium containing the compound to be tested. One hour later, the medium is supplemented so as to contain 25 U/ml γIFN and 0.1 μg/ml LPS and the cultures incubated a further. The cells are then rinsed twice in HEPES- buffered Krebs salt solution with 0.1% glucose. Carrier-free tetra-^3H-arginine is added to each well (2.5 μCi/well with specific activity of […]) and the active uptake of arginine is allowed to continue for a 5 minute period after which the cells are rapidly cooled to 0° C. by lavage with iced saline containing 10 mM unlabeled arginine to displace any externally bound label. The contents of the washed cells are solubilized in 100 Al of formic acid and counted by standard techniques. In subsequent experiments to determine the acitivity of the inhibitors, incubations were performed for 8 hours.
# This section describes experiments that measure the concentration of Compound No. 14 needed to inhibit arginine uptake and NO output. The techniques employed were described in section 7.1 supra.
# [4] = system: C3H/HeN mice; experiment: Carrageenan-induced paw swelling; type: in vivo
# Procedure: Paw edema was induced by injection of 50 microliters of 1% Lambda-carrageenan in HEPES 25 mM, pH 7.4, into the planter surface of the left hindpaw of C3H/HeN mice, the right paw was injected with 50 microliters of HEPES alone. The animals were divided into two groups: controls (n=3) received vehicle only, i.p. 1.5 hour before paw injection; the experimental group […] was treated with Compound No. 14, 5 mg/Kg, i.p. 1.5 hour before paw injection. Three hours after paw injection, paw thickness was measured using a caliper, and the data expressed as change of carrageenan paw vs HEPES paw thickness.
# The results are summarized in Table V which contains the carrageenan-induced increase in paw thickness in mm of three control and three Compound No. 14 treated mice. The inhibition can also be reported as percent inhibition of swelling as defined by the standard formula: Percent inhibition=(1−(treated/control))×100. Calculation of this parameter for treated animals in which Compound No. 14 suppressed swelling yields a 70% inhibition.
# [5] = system: MIP-1β; experiment: Cytokine production by LPS/γIFN-stimulated human PBMC: MIP-1β; type: cell-based; details: γIFN+LPS, 18 hr
# Excerpt: Similar results concerning a variety of cytokines in addition to TNF, e.g., IL-6 and Macrophage Inflammatory Proteins-1α and -1β (MIP-1α and MIP-1β) were obtained using human peripheral blood as a source of monocytes. Human peripheral blood mononuclear cells (PBMC) were isolated using “FICOLL®”-based methods and plated in standard 6-well culture plates at a concentration of 10^6/well and allowed to adhere for from 2 hr to overnight whereupon non-adherent cells were washed out and the medium was then replaced with medium containing the compound to be tested. One hour later, the medium was supplemented so as to contain 25 U/ml γIFN and 0.1 μg/ml LPS and the cultures incubated a further 18 hr. The medium was then collected, and cell debris removed by centrifugation. This conditioned supernatant was then assayed for the presence of cytokines using the standard methodologies of L929 cell cytotoxicity bioassay and immunoassay (ELISA).
# [6] = rats, 10 mg/kg single intra-arterial injection, n=3
smiles,measurement,setting,value
"CC(=NNC(=N)N)c1cc(NC(=O)CCCCCCCCC(=O)Nc2cc(C(C)=NNC(=N)N)cc(C(C)=NNC(=N)N)c2)cc(C(C)=NNC(=N)N)c1.Cl.Cl.Cl.Cl [Compound 14, N,N′-bis(3,5-diacetyl-phenyl)decanediamide tetrakis(amidinohydrazone) tetrahydrochloride]",# of METASTASES (skin),[1],not present
same,reduction in tumor size (animals responding),[1],reduction in tumor size in four out of five animals
same,# of METASTASES (skin),[1]; listed as No. 14,0
same,TUMOR DIMENSION,[1]; n = 4,207.99 ± 119.90 mm^2
same,TUMOR WEIGHT,[1]; n = 4,1.628 ± 1.07 g
same,absorption and bioavailability,[2]; intraperitoneal or oral dosing routes (data not shown),"not rapidly absorbed, and may have a low bioavailability"
same,distribution half-life (t½α),[2]; [6],2.41 ± 0.69 min
same,distribution rate constant (α),[2]; [6],0.31 ± 0.09 min⁻¹
same,elimination half-life (t½β),[2]; [6],5.02 ± 0.00 h
same,elimination rate constant (β),[2]; [6],0.0023 ± 0.0000 min⁻¹
same,total clearance (CL),[2]; [6],5.62 ± 0.47 mL/min
same,volume of distribution (Vd),[2]; [6],2.45 ± 0.21 L
same,peak plasma levels,"[2]; single doses of 0.4-1.0 mg/kg, from pharmacokinetic constants and FIG. 17",> 0.5 µM
same,arginine transport % suppression of induced peak,[3]; dose 2 μM,9%
same,arginine transport % suppression of induced peak,[3]; dose 10 μM,19%
same,arginine transport % suppression of induced peak,[3]; dose 50 μM,86%
same,arginine transport % suppression of induced peak,[3]; dose 200 μM,100%
same,IC50,"[3]; exposed prior to stimulation, uptake measured at 8 hours, read-out: I.C.50 for arginine uptake",7.5 µM
same,CHANGE IN PAW THICKNESS (carrageenan paw vs HEPES paw),"[4]; 5 mg/Kg i.p. 1.5 hour before paw injection, three hours after, individual mice",0.54 mm and 0.41 mm and 0.4 mm
same,Percent inhibition of swelling,"[4]; 5 mg/Kg i.p., (1−(treated/control))×100",70%
same,concentration that effectively inhibited production of MIP-1β,[5],10 to 20 µM
